According to patent publication US7947257B2 (Archimedes Development Limited, priority 2003, dated 2011):

Assay: Pharmacokinetic performance of intranasal granisetron formulations in sheep (plasma granisetron by HPLC)
Format: in vivo
Conditions: in words
Procedure: A group of five female sheep was used, each weighing around 35 kg. The formulations were administered to a randomized cross-over design. […] This dose was provided by administering 0.4 ml of each formulation via a spray device with the dose volume being divided equally between both nostrils.
Blood samples were collected over a 360 minute period following dosing and plasma separated. […] Pharmacokinetic parameters were calculated from the plasma data.

CN1C2CCCC1CC(NC(=O)c1nn(C)c3ccccc13)C2 (stereo not shown) [Granisetron, 1-methyl-N-(9-methyl-9-azabicyclo[3.3.1]non-3-yl)-1H-indazole-3-carboxamide]
absorption by the intranasal route: well absorbed
